Measurements published in patent US10774064B2 (Cadent Therapeutics, Inc., priority 2016, dated 2020).

Molecular target: T1, small-conductance Ca2+-activated K+ channels (SK channels, subtype 2) (Homo sapiens, UniProt Q9H2S1)
T1 construct: expressed in transfected cells; host or cells: HEK293
Assay: whole-cell patch-clamp of ionic current through SK2 channels in HEK293 cells (SC100)
Type: cell-based
Conditions: concentration that increases the basal current by 100%; HEK293 cells expressing SK2 channels
Protocol: The biological activity was determined as follows. The ionic current through small-conductance Ca^2+-activated K^+ channels (SK channels, subtype 2) was measured using the whole-cell configuration of the patch-clamp technique in a patch-clamp set-up using HEK293 tissue culture cells expressing SK2 channels as described in Hougaard et al., British Journal of Pharmacology 151, 655-665, May 8, 2007, the entire teachings of which are incorporated herein by reference. In one aspect, a compound is defined to be an SK PAM if the compound increases current in this assay, for example, if the SC100 value of the compound is less than or equal to 10 μM as determined by this assay. The SC100 value is defined to be the concentration of compound that increases the basal current by 100%.

| Structure (SMILES) | SC100 |
| --- | --- |
| Cc1cc(C)n(-c2cc(CO)cc(NC3CCC(F)(F)CC3)n2)n1 [Compound 185, (2-((4,4-difluorocyclohexyl)amino)-6-(3,5-dimethyl-1H-pyrazol-1-yl)pyridin-4-yl)methanol] | ++ (++ means 200 nM-1000 nM) |
| Cc1ccn(-c2nc(NC3CCC(F)(F)CC3)cc(OC3CN(C(=O)C(C)C)C3)n2)n1 [Compound 210, 1-(3-((6-((4,4-difluorocyclohexyl)amino)-2-(3-methyl-1H-pyrazol-1-yl)pyrimidin-4-yl)oxy)azetidin-1-yl)-2-methylpropan-1-one] | ++ (++ means 200 nM-1000 nM) |
| COc1cc(NC2CCC(F)(F)CC2)nc(-c2nc(C)cs2)n1 [Compound 361, N-(4,4-difluorocyclohexyl)-6-methoxy-2-(4-methylthiazol-2-yl)pyrimidin-4-amine] | ++ (++ means 200 nM-1000 nM) |
| CC(C)C(=O)N1CC(Oc2cc(NC3CCC(F)(F)CC3)nc(-n3ccc(CF)n3)n2)C1 [Compound 290, 1-(3-((6-((4,4-difluorocyclohexyl)amino)-2-(3-(fluoromethyl)-1H-pyrazol-1-yl)pyrimidin-4-yl)oxy)azetidin-1-yl)-2-methylpropan-1-one] | ++ (++ means 200 nM-1000 nM) |
| Cc1cc(C)n(-c2cc(C#N)cc(NC3CCC(F)(F)CC3)n2)n1 [Compound 174, 2-((4,4-difluorocyclohexyl)amino)-6-(3,5-dimethyl-1H-pyrazol-1-yl)isonicotinonitrile] | ++ (++ means 200 nM-1000 nM) |
| Cc1cc(C)n(-c2nc(CF)cc(NC3CCCC(F)(F)C3)n2)n1 (centres unmarked) [Compound 358, N-(3,3-difluorocyclohexyl)-2-(3,5-dimethyl-1H-pyrazol-1-yl)-6-(fluoromethyl)pyrimidin-4-amine] | + (+ means >1 uM) |
| Cc1cc(NC2CCC(F)(F)CC2)nc(-c2nc(C)cs2)n1 [Compound 231, N-(4,4-difluorocyclohexyl)-6-methyl-2-(4-methylthiazol-2-yl)pyrimidin-4-amine] | ++ (++ means 200 nM-1000 nM) |
| Cc1cc(NC2CCC(F)(F)CC2)nc(-c2cccc(Cl)n2)n1 [Compound 230, 2-(6-chloropyridin-2-yl)-N-(4,4-difluorocyclohexyl)-6-methyl pyrimidin-4-amine] | + (+ means >1 uM) |
| O=C(NCc1cc(NC2CCC(F)(F)CC2)nc(-n2ccc(CF)n2)n1)C1COC1 [Compound 333, N-((6-((4,4-difluorocyclohexyl)amino)-2-(3-(fluoromethyl)-1H-pyrazol-1-yl)pyrimidin-4-yl)methyl)oxetane-3-carboxamide] | + (+ means >1 uM) |

Same assay, conditions: whole-cell patch-clamp, HEK293 cells expressing SK2 channels; concentration that increases the basal current by 100%

| Structure (SMILES) | SC100 (μM) |
| --- | --- |
| Cc1ccn(-c2nc(COc3ccc(C#N)cn3)cc(NC3CCC(F)(F)CC3)n2)n1 [IN11053-013-P1] | ++ (++ means 200 nM-1000 nM) |
| COCc1cc(NC2CCC(F)(F)CC2)nc(-n2ccc(C3CC3)n2)n1 [NSSy6880] | ++ (++ means 200 nM-1000 nM) |
| Cc1ccn(-c2nc(N3CCCCCC3)cc(N3CCOC(CO)C3)n2)n1 (centres unmarked) [IN10882-068-P1] | + (+ means >1 uM) |
| COc1cc(NC2CC3CCC2C3)nc(-c2nc(C)cs2)n1 (centres unmarked) [IN11055-087-P1] | + (+ means >1 uM) |
| Cc1ccn(-c2nc(NC3CCC(F)(F)CC3)c(F)c(N3CCOCC3)n2)n1 [IN11111-100-P1, N-(4,4-difluorocyclohexyl)-5-fluoro-2-(3-methyl-1H-pyrazol-1-yl)-6-morpholinopyrimidin-4-amine] | ++ (++ means 200 nM-1000 nM) |
| Cc1ccn(-c2nc(NC3CCC(F)(F)CC3)cc(N3CCN(C)C(=O)C3)n2)n1 [IN11177-049-P1] | ++ (++ means 200 nM-1000 nM) |
| Cc1ccn(-c2cc(N3CCOCC3)nc(NC3CCC(F)(F)CC3)n2)n1 [NSSy6499] | + (+ means >1 uM) |
| CC(=O)N1CCN(c2cc(-n3ccc(F)n3)nc(NC3CCC(F)(F)CC3)n2)CC1 [NSSy6886] | + (+ means >1 uM) |
| FC1(F)CCC(Nc2cc(N3CCOCC3)nc(-n3ccc(-c4ccccc4)n3)n2)CC1 [NSSy7034] | + (+ means >1 uM) |
| Cc1csc(-c2cc(OCc3ncnn3C)cc(NC3CCC(F)(F)CC3)n2)n1 [NSSy5695] | ++ (++ means 200 nM-1000 nM) |
| FC1(F)CCC(Nc2cc(OCc3cnco3)nc(-n3ccc(C4CC4)n3)n2)CC1 [IN11166-020-P1] | ++ (++ means 200 nM-1000 nM) |
| Cc1ccn(-c2cc(CN(C)C)cc(NC3CCC(F)(F)CC3)n2)n1 [IN11063-006-P1, N-(4,4-difluorocyclohexyl)-4-((dimethylamino)methyl)-6-(3-methyl-1H-pyrazol-1-yl)pyridin-2-amine] | ++ (++ means 200 nM-1000 nM) |
| CC(=O)NC1CCN(c2cc(NC3CCC(F)(F)CC3)nc(-c3nc(C)cs3)n2)CC1 [IN10880-032-P1] | ++ (++ means 200 nM-1000 nM) |
| Cc1cc(NC2CCC(F)(F)CC2)nc(-n2cc3c(n2)CCC3)n1 [IN11216-001-P1] | + (+ means >1 uM) |
| CO[C@@H](C)c1cc(-c2nc(C)cs2)nc(NC2CCC(F)(F)CC2)n1 [NSSy6729, (S)—N-(4,4-difluorocyclohexyl)-4-(1-methoxyethyl)-6-(4-methylthiazol-2-yl)pyrimidin-2-amine] | + (+ means >1 uM) |
| CNCc1cc(NC2CCC(F)(F)CC2)nc(-n2ccc(C)n2)c1 [IN11039-026-P1] | ++ (++ means 200 nM-1000 nM) |
| Cc1ccn(-c2nc(NC(C)C)cc(C(C)O)n2)n1 (centres unmarked) [IN10880-056-P1] | + (+ means >1 uM) |
| Cc1nsc(-c2nc(NC3CCCCC3)cc(N3CCS(=O)(=O)CC3)n2)n1 [NSSy6202, 4-(6-(cyclohexylamino)-2-(3-methyl-1,2,4-thiadiazol-5-yl)pyrimidin-4-yl)thiomorpholine 1,1-dioxide] | ++ (++ means 200 nM-1000 nM) |

| Structure (SMILES) | SC100 (μM) |
| --- | --- |
| Cc1nc(NC2CCC(F)(F)CC2)nc(-n2ccc(C3CC3)n2)n1 [NSSy7043, 4-(3-cyclopropyl-1H-pyrazol-1-yl)-N-(4,4-difluorocyclohexyl)-6-methyl-1,3,5-triazin-2-amine] | + (+ means >1 uM) |
| COC(=O)N1CC(Oc2cc(NC3C4CC3C4)nc(-n3ccc(C)n3)n2)C1 (centres unmarked) [NSSy6127] | + (+ means >1 uM) |
| Cc1csc(-c2ncc(C)c(NC3CCC(F)(F)CC3)n2)n1 [IN11130-076-P1, N-(4,4-difluorocyclohexyl)-5-methyl-2-(4-methylthiazol-2-yl)pyrimidin-4-amine] | + (+ means >1 uM) |
| Cc1ccn(-c2nc(NC3CCC(F)(F)CC3)cc(N3CC(=O)N(C)C(=O)C3)n2)n1 [IN11288-005-P1] | ++ (++ means 200 nM-1000 nM) |
| Cc1ccn(-c2cc(CN3CCCC3=O)cc(NC3CCC(F)(F)CC3)n2)n1 [NSSy6019, 1-((2-((4,4-difluorocyclohexyl)amino)-6-(3-methyl-1H-pyrazol-1-yl)pyridin-4-yl)methyl)pyrrolidin-2-one] | ++ (++ means 200 nM-1000 nM) |
| CNc1cc(NC2CCC(F)(F)CC2)nc(-c2nc(C)cs2)n1 [IN11055-049-P1] | ++ (++ means 200 nM-1000 nM) |
| COCC1CN(c2cc(NC3CCC(F)(F)CC3)nc(-c3nc(C)cs3)c2)CCO1 (centres unmarked) [NSSy5807] | +++ (+++ means <200 nM) |
| Cc1cc(C)n(-c2cc(CO)cc(NC3CCC(F)(F)CC3)n2)n1 [NSSy6355, (2-((4,4-difluorocyclohexyl)amino)-6-(3,5-dimethyl-1H-pyrazol-1-yl)pyridin-4-yl) methanol] | ++ (++ means 200 nM-1000 nM) |
| Cc1cc(NC2CC=C(F)CC2)nc(-c2nc(C)cs2)n1 (centres unmarked) [IN10966-057-P2, N-(4-fluorocyclohex-3-en-1-yl)-6-methyl-2-(4-methylthiazol-2-yl)pyrimidin-4-amine] | ++ (++ means 200 nM-1000 nM) |
| CCc1cc(NC2CCC(F)(F)CC2)nc(-n2ccc(C3CC3)n2)n1 [IN11137-072-P1, 2-(3-cyclopropyl-1H-pyrazol-1-yl)-N-(4,4-difluorocyclohexyl)-6-ethylpyrimidin-4-amine] | ++ (++ means 200 nM-1000 nM) |
| COC(C)c1cc(N(C)C2CCC(F)(F)CC2)nc(-n2ccc(C(F)(F)F)n2)n1 (centres unmarked) [IN11053-073-P1, N-(4,4-difluorocyclohexyl)-6-(1-methoxyethyl)-N-methyl-2-(3-(trifluoromethyl)-1H-pyrazol-1-yl)pyrimidin-4-amine] | + (+ means >1 uM) |
| FC1(F)CCC(Nc2cc(N3CCOCC3)nc(-c3ccc[nH]3)n2)CC1 [IN11030-023-P1, N-(4,4-difluorocyclohexyl)-6-morpholino-2-(1H-pyrrol-2-yl)pyrimidin-4-amine] | + (+ means >1 uM) |
| Cc1cc(NC2CCC(F)(F)CC2)nc(CC#N)n1 [IN11273-018-P1, 2-(4-((4,4-difluorocyclohexyl)amino)-6-methylpyrimidin-2-yl) acetonitrile] | + (+ means >1 uM) |
| Cc1ccn(-c2nc(COc3ccc(C(N)=O)nn3)cc(NC3CCC(F)(F)CC3)n2)n1 [IN11053-046-P1] | +++ (+++ means <200 nM) |
| Cc1csc(-c2cc(C(C)O)cc(NC3CCC(F)(F)CC3)n2)n1 (centres unmarked) [IN11130-051-P1, 1-(2-((4,4-difluorocyclohexyl)amino)-6-(4-methylthiazol-2-yl)pyridin-4-yl) ethan-1-ol] | +++ (+++ means <200 nM) |
| Cc1cc(NC2CCC(F)(F)CC2)nc(-c2nc(C3CC3)cs2)n1 [IN11147-062-P1, 2-(4-cyclopropylthiazol-2-yl)-N-(4,4-difluorocyclohexyl)-6-methylpyrimidin-4-amine] | + (+ means >1 uM) |
| CC(=O)N1CCN(c2cc(-n3ccc(C(F)(F)F)n3)nc(NC3CCC(F)(F)CC3)n2)CC1 [NSSy6607] | ++ (++ means 200 nM-1000 nM) |
